Laboratory results as given in US20230338532A1, “IMMUNOSUPPRESSANT DRUG RESISTANT ARMORED TCR T CELLS FOR IMMUNE-THERAPY OF ORGAN TRANSPLANT PATIENTS” (priority 2020, published 2023).

Key:
Type in all cases: cell-based, human
HepG2.2.15 cells [1] = assay: TNF-α production of TCR T cells after overnight co-culture with HepG2.2.15 cells; settings: clinically relevant concentration
Method: FIGS. 1A and 1B show functional profiles of 5183-electroporated T cells treated with tacrolimus. Cytokine production (TNF-α as a representative) of drug-treated S183 TCR-T cells was evaluated following overnight co-culture with HepG2.215 cells. FIG. 1A: Concatenated dot plots (left panel) from representative experiments stained for TNF-α production. […] Non-treated electroporated T cells used as negative control. FIG. 1B: Drug effect on T cell cytolysis determined through impedance measurement. The Normalized Cell Index plot was converted to an area under the curve, and quantified to measure the percentage of cytolysis ˜45 hours after S183-TCR T cell addition. […] Statistical significance was evaluated by 2-tailed t test. […]
FIG. 3A: S183 TCR and mutant CnB m-RNA were co-electroporated and T cell function was evaluated following overnight co-culture with HepG2.2.15 cells. FIG. 3B: Viability and TCR expression of engineered T cells evaluated 24 hours post-electroporation. […] FIG. 3C: Frequency of TNF-α-producing CD8+ cells out of total live CD8+ T cells were quantified following overnight incubation with the targets (n=3). […]
FIG. 5A: Sequence information of siRNA specific for FKBP1A. FIG. 5B: Frequency of TNF-α-producing CD8+ cells out of total live CD8+ T cells were quantified following overnight incubation with the targets and different concentrations of Tacrolimus (n=3). […]

T cells = assay: Viability of engineered T cells exposed to immunosuppressants; settings: clinically relevant concentration, 48 hours exposure
Method: Intracellular cytokine staining and viability analysis were performed at the indicated time after treatment.

HepG2.2.15 cells [2] = assay: T cell cytolysis by impedance measurement (real time killing assay); settings: clinically relevant doses, FIG. 1B
Method: FIGS. 1A and 1B show functional profiles of 5183-electroporated T cells treated with tacrolimus. Cytokine production (TNF-α as a representative) of drug-treated S183 TCR-T cells was evaluated following overnight co-culture with HepG2.215 cells. FIG. 1A: Concatenated dot plots (left panel) from representative experiments stained for TNF-α production. […] Non-treated electroporated T cells used as negative control. FIG. 1B: Drug effect on T cell cytolysis determined through impedance measurement. The Normalized Cell Index plot was converted to an area under the curve, and quantified to measure the percentage of cytolysis ˜45 hours after S183-TCR T cell addition. Each dot represents one individual experiment in bar graphs. Statistical significance was evaluated by 2-tailed t test. […]
FIGS. 6A, 6B and 6C show dual-resistant TCR-redirected T cells were produced by electroporating 3 mRNAs (HBV TCR, CnB mutant and IMPDH mutant) into the T cells. FIG. 6A: Frequency of TNF-α-producing CD8+ cells out of total live CD8 T cells was quantified following overnight incubation with the targets (n=3). […] FIG. 6B: T cell cytolysis determined by real time killing assay in the presence and absence of both drugs. […] FIG. 6C: Viability of dual resistant TCR-T cells evaluated 72 hours after exposure to clinically relevant concentration of both drugs.

COc1c(C)c2c(c(O)c1C/C=C(\C)CCC(=O)OCCN1CCOCC1)C(=O)OC2 [MMF, Mycophenolate mofetil]
effect on T cell function and killing (HepG2.2.15 cells [1]): does not impair T cell function and killing | effect on viability of modified TCR-T cells (T cells): markedly decreases the viability

C=CC[C@@H]1/C=C(\C)C[C@H](C)C[C@H](OC)[C@H]2O[C@@](O)(C(=O)C(=O)N3CCCC[C@H]3C(=O)O[C@H](/C(C)=C/[C@@H]3CC[C@@H](O)[C@H](OC)C3)[C@H](C)[C@@H](O)CC1=O)[C@H](C)C[C@@H]2OC [Tacrolimus]
effect on T cell TNF-α production (HepG2.2.15 cells [1]; 12 hours incubation with HepG2.2.15 cells): can impair T cell TNF-α production | loss of cytolytic activity of treated T cells (HepG2.2.15 cells [2]): ≤ 50 % of the non-treated control
